From article PMC11396839, “Structure-Aided Computational Design of Triazole-Based Targeted Covalent Inhibitors of Cruzipain” (Molecules, 2024)
Like-named read-outs stand apart in the source and are kept apart here.

How the values were obtained:
[1] = target: T1, recombinant CZP (cruzain) (Trypanosoma cruzi, UniProt P25779); experiment: CZP inhibition, cleavage of fluorogenic substrate Z-FR-AMC (initial screening and IC50); format: biochemical, T. cruzi; conditions: for times lower potency than the most active analogues (Ald-6 and Ald-10): CZP IC50 ratio
T1 construct: gift of Allison Doak and Prof; Brian Shoichet (University of California San Francisco)
Method: The previously reported methods were followed to evaluate the in vitro activity against CZP [91, 92, 93, 94]. Allison Doak and Prof. Brian Shoichet (University of California San Francisco, San Francisco, CA, USA) generously provided recombinant CZP (cruzain). The enzyme activity was measured by monitoring the cleavage of the fluorogenic substrate Z-FR-AMC at 25 °C. Unless stated otherwise, assays were performed using 2.5 μ M of substrate ( KM = 0.5 ± 0.1 μ M) and 0.5 nM CZP in a 0.1 M sodium acetate buffer, pH 5.5, 0.01% Triton X-100 and 2 mM β -mercaptoethanol. DMSO and 1 μ M E-64 were employed as negative and positive controls, respectively, in all assays. Fluorescence was monitored at 340/440 nm (excitation/emission) over time in a Biotec 87 Synergy 2 fluorimeter at the Multiuser Laboratory of the Biochemistry and Immunology Department (UFMG, Belo Horizonte, Brazil). All assays were performed in triplicate in two independent experiments.
Initial screening. For the initial screening against CZP, compounds at 100 μ M were tested against CZP with and without a 10min pre-incubation with the enzyme. The fluorescence was monitored for 10 min at 5 s intervals. DMSO and E-64 were employed in all assays as negative and positive controls, respectively. Initial velocities of the negative control (DMSO) were compared to those in the presence of compounds to calculate the percentage of inhibition. The reported values correspond to the mean and standard error of the mean (SEM) of experiments performed in triplicate in two independent experiments.
IC50 determination. Compounds in at least eight distinct compound concentrations (400 μ M, 100 μ M, 25 μ M, 6.25 μ M, 1.5 μ M, 0.4 μ M, 0.1 μ M and 0.025 μ M) were incubated with CZP for 10 min, and once the substrate was added, the fluorescence was monitored for 10 min at 5 s intervals. IC50 curves were obtained from a non-linear fit of the inhibition values versus the logarithmic concentration of the compounds. The reported IC50 values are the mean and SEM of two independent measurements performed in triplicate.

[2] = target: T2, recombinant human cathepsin L (hCatL) (Homo sapiens, UniProt P07711); experiment: hCatL screening, cleavage of Z-FR-AMC; format: biochemical; conditions: for inhibition at 100 µM: read-out: % hCatL inhib.
T2 construct: purchased Sigma-Aldrich
Method: The recombinant human cathepsin L (hCatL) (Sigma-Aldrich) was activated prior to the assays. First, 10 ng/ μ L of the enzyme was incubated in the activation buffer (50 mM MES, pH 6, 1 mM EDTA, 5mM DTT) for 30 min at 37 °C. hCatL activity was measured based on the cleavage of the fluorescent substrate Z-FR-AMC in a Biotec 87 Synergy 2 fluorimeter at the Multiuser Laboratory of the Biochemistry and Immunology Department (UFMG, Brazil). The assays were executed in 96-well round bottom black plates in 50 mM MES buffer, pH 6, containing 1 mM EDTA, 5 mM DTT, 0.001% Triton-X100, 5 pg/ μ L enzyme and 25 μ M Z-FR-AMC at 37 °C. The triazole-based derivatives were tested against hCatL, at 100 μ M, with a 10 min pre-incubation with the enzyme. The initial velocities of the DMSO control were compared to those in the presence of the compounds. Assays were executed in triplicate in two independent experiments, and enzyme activity was measured for 20 min.

[3] = tested on: T. cruzi (Tulahuen trypomastigotes overexpressing β-galactosidase) in Vero cells; experiment: T. cruzi inhibition assay, infection model in Vero cells, β-galactosidase activity; format: cell-based, Trypanosoma cruzi; conditions: 50 μM (Ald-4 20 μM)
Method: To perform the assay, the drug screening method reported by Buckner et al. was adapted. Vero cells were seeded at 1 × 10^4 per well on 96-well culture plates in 100 μ L MEM-5% FBS. Tulahuen trypomastigotes overexpressing the E. coli β -galactosidase protein were distributed in triplicates on the plate. After a 2 h incubation at 37 °C, the culture media were extracted and replaced with fresh MEM-5% FBS with 1 μ M, 10 μ M or 50 μ M solutions of the triazole-based inhibitors, and the plate was incubated another 72 h at 37 °C. Ninety-six hours post infection, the cell culture media were removed and cells and intracellular amastigotes were lysed in 100 μ L lysis buffer (25 mM Tris pH 8, 2 mM EDTA, 2 mM DTT, 1% Triton X-100, 10% glycerol in ultrapure MQ water) for 10 min at 37 °C. Then, 100 μ L 2× reaction buffer (200 mM sodium phosphate pH 8, 2 mM MgCl2, 100 mM 2-mercaptoethanol and 1.33 mg.mL^−1 o-nitrophenyl- β -galactoside (ONPG)) was added and the reaction was allowed to proceed until a yellow color developed (1–2 h at 37 °C). The absorbance at 420 nm was measured in a Synergy HTX multi-mode microplate reader (Biotek Instruments, Winooski, VT, USA) and normalized to the value obtained for the infection in the absence of inhibitors. To determine its IC50, Ald-6 was evaluated at nine different concentrations (0.098, 0.195, 0.39, 0.78, 1.56 3.13 6.25, 12.5 and 50.0 μ M), following the same protocol. Each infection condition and inhibitor were tested in triplicates in four independent experiments.

[4] = 100 μM, 10 min pre-incubation of the enzyme with compound, read-out: % CZP inh.
[5] = 10 min incubation with CZP, mean ± SEM of two independent experiments, read-out: IC50 (μM) against CZP

T2 sequence (P07711 114-333): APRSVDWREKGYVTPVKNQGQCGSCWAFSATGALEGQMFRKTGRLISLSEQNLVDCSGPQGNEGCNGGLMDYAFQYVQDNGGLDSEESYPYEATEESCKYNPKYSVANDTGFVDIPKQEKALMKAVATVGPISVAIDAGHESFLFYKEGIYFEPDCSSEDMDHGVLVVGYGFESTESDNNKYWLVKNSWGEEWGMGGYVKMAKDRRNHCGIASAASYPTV
T1 sequence (P25779 123-337): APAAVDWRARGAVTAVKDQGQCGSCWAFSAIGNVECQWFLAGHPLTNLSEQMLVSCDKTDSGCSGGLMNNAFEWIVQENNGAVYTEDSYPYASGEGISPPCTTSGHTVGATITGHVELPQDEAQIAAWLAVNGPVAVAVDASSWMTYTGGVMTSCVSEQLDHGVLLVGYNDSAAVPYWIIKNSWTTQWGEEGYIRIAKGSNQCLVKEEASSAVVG

| Compound | inhibition at 100 µM [1, 4] [%] | further results |
| --- | --- | --- |
| O=CC(Cc1ccccc1)n1cc(C(NCc2ccc3c(c2)OCO3)C2CCCCC2)nn1 (stereo not drawn) [Ald-1] | 64 ± 5 | IC50 [1]: 41 ± 4 µM; times lower potency than the most active analogues (Ald-6 and Ald-10) [1]: 12.4; selectivity for CZP over hCatL in words ([2]; 100 μM): selective CZP inhibitors; inhibition at 100 µM ([2]; 10 min incubation): 0% |
| O=CC(CCC(=O)O)n1cc(C(NCc2ccc3c(c2)OCO3)C2CCCCC2)nn1 (stereo not drawn) [Ald-3] | 8 ± 2 | CZP inhibitory activity in words [1]: not active at all |
| O=CC(Cc1c[nH]cn1)n1cc(C(NCc2ccc3c(c2)OCO3)C2CCCCC2)nn1 (stereo not drawn) [Ald-4] | 83 ± 2 | IC50 [1, 5]: 5 ± 2 µM; selectivity for CZP over hCatL in words ([2]; 100 μM): selective CZP inhibitors; inhibition at 100 µM ([2]; 10 min incubation): 10 ± 3%; anti-T. cruzi/cytotoxicity balance in words [3]: acceptable anti-T. cruzi/cytotoxicity balance |
| CC(C)CC(C=O)n1cc(C(NCc2ccc3c(c2)OCO3)C2CCCCC2)nn1 (stereo not drawn) [Ald-5] | 64 ± 2 | IC50 [1]: 7 ± 2 µM; selectivity for CZP over hCatL in words ([2]; 100 μM): selective CZP inhibitors; inhibition at 100 µM ([2]; 10 min incubation): 24 ± 9% |
| CSCCC(C=O)n1cc(C(NCc2ccc3c(c2)OCO3)C2CCCCC2)nn1 (stereo not drawn) [Ald-7] | 42 ± 7 | – |
| O=CC(c1ccccc1)n1cc(C(NCc2ccc3c(c2)OCO3)C2CCCCC2)nn1 (stereo not drawn) [Ald-9] | 11 ± 3 | – |
| CC(O)C(C=O)n1cc(C(NCc2ccc3c(c2)OCO3)C2CCCCC2)nn1 (stereo not drawn) [Ald-11] | 58 ± 4 | – |
| O=CC(Cc1c[nH]c2ccccc12)n1cc(C(NCc2ccc3c(c2)OCO3)C2CCCCC2)nn1 (stereo not drawn) [Ald-12] | 56 ± 7 | IC50 [1, 5]: 45.4 ± 0.3 µM; times lower potency than the most active analogues (Ald-6 and Ald-10) [1]: 13.8; selectivity for CZP over hCatL in words ([2]; 100 μM): selective CZP inhibitors; inhibition at 100 µM ([2]; 10 min incubation): 0% |
| O=CC(Cc1ccc(O)cc1)n1cc(C(NCc2ccc3c(c2)OCO3)C2CCCCC2)nn1 (stereo not drawn) [Ald-13] | 83 ± 2 | IC50 [1, 5]: 13 ± 5 µM; times lower potency than the most active analogues (Ald-6 and Ald-10) [1]: 3.9; selectivity for CZP over hCatL in words ([2]; 100 μM): selective CZP inhibitors; inhibition at 100 µM ([2]; 10 min incubation): 0% |
| O=CC(Cc1ccccc1)n1cc(C(C2CCCCC2)N2CCc3ccccc3C2)nn1 (stereo not drawn) [Ald-16] | 34 ± 5 | – |
| O=CC(Cc1c[nH]cn1)n1cc(C(C2CCCCC2)N2CCc3ccccc3C2)nn1 (stereo not drawn) [Ald-17] | 38 ± 6 | – |
| CSCCC(C=O)n1cc(C(C2CCCCC2)N2CCc3ccccc3C2)nn1 (stereo not drawn) [Ald-18] | 16 ± 4 | – |
| O=CC(c1ccccc1)n1cc(C(C2CCCCC2)N2CCc3ccccc3C2)nn1 (stereo not drawn) [Ald-19] | 3 ± 10 | – |
| O=CC(CO)n1cc(C(C2CCCCC2)N2CCc3ccccc3C2)nn1 (stereo not drawn) [Ald-20] | 83 ± 3 | IC50 [1]: 7 ± 4 µM; selectivity for CZP over hCatL in words ([2]; 100 μM): selective CZP inhibitors; inhibition at 100 µM ([2]; 10 min incubation): 0%; anti-T. cruzi/cytotoxicity balance in words [3]: acceptable anti-T. cruzi/cytotoxicity balance |
| CC(O)C(C=O)n1cc(C(C2CCCCC2)N2CCc3ccccc3C2)nn1 (stereo not drawn) [Ald-21] | 8 ± 7 | – |
| O=CC(Cc1c[nH]c2ccccc12)n1cc(C(C2CCCCC2)N2CCc3ccccc3C2)nn1 (stereo not drawn) [Ald-22] | 55 ± 9 | – |
| CC(C)C[C@H](NC(=O)[C@H]1O[C@@H]1C(=O)O)C(=O)NCCCCN=C(N)N [E-64, reference compound] | – | CZP inhibition by positive control ([1]; 1 μM, 10 min preincubation): 98%; % CZP inh. ([1]; 100 μM, 10 min pre-incubation of the enzyme with compound): 98 ± 2%; % CZP inhib. wo/inc. ([1]; 100 μM, without prior incubation): 12± 8%; % hCatL inhib. ([2]; 100 μM, 10 min incubation): 97 ± 3% |
| COC(=O)[C@H](Cc1ccccc1)n1cc(C(NCc2ccc3c(c2)OCO3)C2CCCCC2)nn1 (stereo partly drawn) [Es-1] | 15 ± 2 | – |
| COC(=O)C(C(C)C)n1cc(C(NCc2ccc3c(c2)OCO3)C2CCCCC2)nn1 (stereo not drawn) [Es-2] | 9 ± 7 | – |

| Compound | inhibition at 100 µM [1, 4] [%] | further results |
| --- | --- | --- |
| COC(=O)C(CCC(=O)O)n1cc(C(NCc2ccc3c(c2)OCO3)C2CCCCC2)nn1 (stereo not drawn) [Es-3] | 8 ± 7 | – |
| COC(=O)C(Cc1c[nH]cn1)n1cc(C(NCc2ccc3c(c2)OCO3)C2CCCCC2)nn1 (stereo not drawn) [Es-4] | 5 ± 4 | – |
| COC(=O)C(CC(C)C)n1cc(C(NCc2ccc3c(c2)OCO3)C2CCCCC2)nn1 (stereo not drawn) [Es-5] | 5 ± 2 | – |
| COC(=O)[C@H](CCCCN)n1cc(C(NCc2ccc3c(c2)OCO3)C2CCCCC2)nn1 (stereo partly drawn) [Es-6] | 9 ± 2 | – |
| COC(=O)C(C)n1cc(C(NCc2ccc3c(c2)OCO3)C2CCCCC2)nn1 (stereo not drawn) [Es-8] | 8 ± 7 | – |
| COC(=O)C(c1ccccc1)n1cc(C(NCc2ccc3c(c2)OCO3)C2CCCCC2)nn1 (stereo not drawn) [Es-9] | 6 ± 5 | – |
| COC(=O)C(CO)n1cc(C(NCc2ccc3c(c2)OCO3)C2CCCCC2)nn1 (stereo not drawn) [Es-10] | ≥ 47 | inhibition at 100 µM ([1]; read-out: % CZP inhib. wo/inc., 100 μM, without prior incubation): 43 ± 4% |
| COC(=O)C(C(C)O)n1cc(C(NCc2ccc3c(c2)OCO3)C2CCCCC2)nn1 (stereo not drawn) [Es-11] | 0 | – |
| COC(=O)C(Cc1c[nH]c2ccccc12)n1cc(C(NCc2ccc3c(c2)OCO3)C2CCCCC2)nn1 (stereo not drawn) [Es-12] | 15 ± 2 | – |
| COC(=O)C(Cc1ccc(O)cc1)n1cc(C(NCc2ccc3c(c2)OCO3)C2CCCCC2)nn1 (stereo not drawn) [Es-13] | 8 ± 1 | – |
| CCOC(=O)C(Cc1ccccc1)n1cc(C(C2CCCCC2)N2CCc3ccccc3C2)nn1 (stereo not drawn) [Es-16] | 13 ± 6 | – |
| COC(=O)C(Cc1c[nH]cn1)n1cc(C(C2CCCCC2)N2CCc3ccccc3C2)nn1 (stereo not drawn) [Es-17] | 6 ± 3 | – |
| CCOC(=O)C(CCSC)n1cc(C(C2CCCCC2)N2CCc3ccccc3C2)nn1 (stereo not drawn) [Es-18] | 0 | – |
| COC(=O)C(c1ccccc1)n1cc(C(C2CCCCC2)N2CCc3ccccc3C2)nn1 (stereo not drawn) [Es-19] | 0 | – |
| COC(=O)C(CO)n1cc(C(C2CCCCC2)N2CCc3ccccc3C2)nn1 (stereo not drawn) [Es-20] | 5 ± 4 | – |
| COC(=O)C(C(C)O)n1cc(C(C2CCCCC2)N2CCc3ccccc3C2)nn1 (stereo not drawn) [Es-21] | 0 | – |
| COC(=O)C(Cc1c[nH]c2ccccc12)n1cc(C(C2CCCCC2)N2CCc3ccccc3C2)nn1 (stereo not drawn) [Es-22] | 1 ± 6 | – |
| COC(=O)C(Cc1ccc(O)cc1)n1cc(C(C2CCCCC2)N2CCc3ccccc3C2)nn1 (stereo not drawn) [Es-23] | 1 ± 14 | – |
| COC(=O)C(CCCNC(=N)N)n1cc(C(C2CCCCC2)N2CCc3ccccc3C2)nn1 (stereo not drawn) [Es-24] | 6 ± 1 | – |
